# Data from ChEMBL document CHEMBL5053469, “Heterocyclic GTP Cyclohydrolase 1 Inhibitors For the Treatment of Pain” (2012).
# How the values were obtained:
# [1] = Inhibition of recombinant rat GCH1 assessed as reduction in 7,8-dihydroneoptrein 3'-triphosphate formation using GTP as substrate incubated for 15 mins by HPLC and fluorescence detection assay
# [2] = Inhibition of rat aortic smooth muscle cell GCH1 expressed in Escherichia coli assessed as reduction in 7,8-dihydroneoptrein 3'-triphosphate formation using GTP as substrate incubated for 1 hr by LC/MS assay
SMILES,IC50 [1] [µM],IC50 [2] [µM]
Nc1nc2[nH]c(S)nc2c(=O)[nH]1,24,
CC1CCCCC1NC(=O)CSc1nc2c(O)nc(N)nc2[nH]1 (stereo not drawn),,89
Nc1nc(O)c2nc(SCC(=O)Nc3ccc(S(=O)(=O)N4CCCCCC4)cc3)[nH]c2n1,,127
